In patent US20240325398A1, “COMBINATION THERAPIES” (Infinity Pharmaceuticals, Inc., priority 2014, published 2024):

Columns and labels:
[1] = system: HH; test: Combination study, ATPLite 72 h, dose matrix (Synergy Score, CI50); format: cell-based; details: combination with Compound 1
Experimental: The method is described as follows.
Additive effect is CI=1.0. […] Antagonistic effect is CI>1.0.
The Synergy Score is calculated as: […]

[2] = system: HBL-1; test: as above; details: combination with Compound 1, 72 h
[3] = system: OCI-Ly3; test: as above; details: combination with Compound 1; OCI-Ly3; 72 h
[4] = system: U-2932; test: as above; details: combination with Compound 1, 72 h
[5] = system: TMD8; test: as above; details: combination with Compound 1; TMD8; 72 h
Experimental: (§1) Cells are thawed from a liquid nitrogen preserved state. Once cells have been expanded and divide at their expected doubling times, screening begins. Cells are seeded in growth media in either black 1536-well or 384-well tissue culture treated plates. Cells are then equilibrated in assay plates via centrifugation and placed in incubators attached to the Dosing Modules at 37° C. for 24 hours before treatment. […] These Tzero (To) plates are read using ultra-sensitive luminescence on Envision plate readers (Perkin Elmer). Treated assay plates are incubated with compound for 72 hours. After 72 hours, plates are developed for endpoint analysis using ATPLite. All data points are collected via automated processes, quality controlled and analyzed using Zalicus software.
(§2) where T is treated cell count and V is untreated (vehicle) cell count (at 72 hours). I ranges from 0% (when T=V) to 100% (when T=0). […] The measure of effect in the experiment can be the inhibition of cellular response relative to the untreated level (vehicle alone). […] The inhibition ranges from 0% at the untreated level to 100% when T=0. Inhibition levels are negative for agents that actually increase levels. Other effect measures, such as an activity ratio r=T/V may be more appropriate for some assays. When activity ratios (e.g, fold increase over stimulated control) are being used, the effect can be measured using an induction 1=ln(T/V). With this definition, all effect expressions are the same as for inhibition.
(§3) Growth Inhibition (GI) is used as a measure of cell viability. […] A GI reading of 100% represents complete growth inhibition—T72 compound-treated and T0 vehicle signals are matched. […] A GI reading of 200% represents complete death of all cells in the culture well. Compounds reaching an activity plateau of GI 200% are considered cytotoxic. GI is calculated by applying the following test and equation:
(§4) Combination analysis data were collected in a 6×6 dose matrix. Synergy is calculated by comparing a combination's response to those of its single compound, against the drug-with-itself dose-additive reference model. Deviations from dose additivity may be assessed visually on an isobologram or numerically with a Combination Index (CI). […] Additive effect is CI=1.0. […] Antagonistic effect is CI>1.0.
The isobologram was drawn by identifying the locus of concentrations that correspond to crossing the indicated inhibition level. This is done by finding the crossing point for each single agent concentration in a dose matrix across the concentrations of the other single agent. Practically, each vertical concentration CY is held fixed while a bisection algorithm is used to identify the horizontal concentration CX in combination with that vertical dose that gives the chosen effect level in the response surface Z(CX,CY). These concentrations are then connected by linear interpolation to generate the isobologram display. For synergistic interactions, the isobologram contour fall below the additivity threshold and approaches the origin, and an antagonistic interaction would lie above the additivity threshold. The error bars represent the uncertainty arising from the individual data points used to generate the isobologram. The uncertainty for each crossing point is estimated from the response errors using bisection to find the concentrations where Z−αZ(CX,CY) and Z+σZ(CX,CY) cross Icut, where αZ is the standard deviation of the residual error on the effect scale.
(§5) To measure combination effects in excess of Loewe additivity, a scalar measure to characterize the strength of synergistic interaction termed the Synergy Score is devised. The Synergy Score is calculated as:
The fractional inhibition for each component agent and combination point in the matrix is calculated relative to the median of all vehicle-treated control wells.

[6] = system: OCI-Ly7; test: as above; details: combination with Compound 1, 72 h
[7] = system: SU-DHL-4-epst; test: as above; details: combination with Compound 1, 72 h
[8] = system: DOHH-2; test: as above; details: combination with Compound 1, 72 h
Experimental: as §1
The measure of effect in the experiment can be the inhibition of cellular response relative to the untreated level (vehicle alone). […] The inhibition ranges from 0% at the untreated level to 100% when T=0. Inhibition levels are negative for agents that actually increase levels.
as §3, §4, §5
(§6) The fractional inhibition for each component agent and combination point in the matrix is calculated relative to the median of all vehicle-treated control wells. The Synergy Score equation integrates the experimentally-observed activity volume at each point in the matrix in excess of a model surface numerically derived from the activity of the component agents using the Loewe model for additivity. Additional terms in the Synergy Score equation (above) are used to normalize for various dilution factors used for individual agents and to allow for comparison of synergy scores across an entire experiment. The inclusion of positive inhibition gating or an Idata multiplier removes noise near the zero effect level, and biases results for synergistic interactions at that occur at high activity levels.
Loewe Volume (Loewe Vol) is used to assess the overall magnitude of the combination interaction in excess of the Loewe additivity model. Loewe Volume is particularly useful when distinguishing synergistic increases in a phenotypic activity (positive Loewe Volume) versus synergistic antagonisms (negative Loewe Volume). […] This model defines additivity as a non-synergistic combination interaction where the combination dose matrix surface should be indistinguishable from either drug crossed with itself. The calculation for Loewe additivity is:

[9] = system: Farage; test: as above; details: combination with Compound 1; Farage; 72 h
[10] = system: SU-DHL-10-epst; test: as above; details: combination with Compound 1, 72 h
[11] = system: RL; test: as above; details: combination with Compound 1, 72 h
[12] = system: KARPAS-422; test: as above; details: combination with Compound 1, 72 h
Experimental: as §1, §2, §3, §4, §5, §6
(§7) Loewe Volume (Loewe Vol) is used to assess the overall magnitude of the combination interaction in excess of the Loewe additivity model. Loewe Volume is particularly useful when distinguishing synergistic increases in a phenotypic activity (positive Loewe Volume) versus synergistic antagonisms (negative Loewe Volume). […] This model defines additivity as a non-synergistic combination interaction where the combination dose matrix surface should be indistinguishable from either drug crossed with itself.

[13] = system: WSU-NHL; test: as above; details: combination with Compound 1, 72 h
Experimental: as §1, §2, §3, §4, §5, §6, §7

[14] = system: KARPAS-299; test: as above; details: combination with Compound 1
Experimental: as §1, §2, §3, §4, §5, §6, §7

[15] = system: GRANTA-519; test: as above; details: combination with Compound 1
[16] = system: Jeko-1; test: as above; details: combination with Compound 1
Experimental: as §1, §2, §3, §4, §5, §6, §7

[17] = system: Mino; test: as above; details: combination with Compound 1
Experimental: as §1, §2, §3, §4, §5, §6, §7

[18] = system: NCI-H929; test: as above; details: combination with Compound 1
Experimental: as §1, §2, §3, §4, §5, §6, §7

[19] = as above; details: combination with Compound 1; OPM-2
[20] = system: OMP-2; test: as above; details: combination with Compound 1; OPM-2
[21] = system: RPMI-8226; test: as above; details: combination with Compound 1

COc1ccc(-c2ccc3c(N4CCOC[C@@H]4C)nc(N4CCOC[C@@H]4C)nc3n2)cc1CO [AZD 8055]
CI50 growth inhibition [1]: S (S=0.01 to <0.5)
CI50 inhibition [1]: S (S=0.01 to <0.5)
Synergy Score growth inhibition [1]: A3 (A3=>3)
Synergy Score inhibition [1]: A2 (A2=1 to <3)
CI50 growth inhibition [2]: S (S=0.01 to <0.5)
CI50 inhibition [2]: T (T=0.5 to <0.7)
Synergy Score growth inhibition [2]: A3 (A3=>3)
Synergy Score inhibition [2]: A1 (A1=0.0001 to <1)
CI50 growth inhibition [3]: S (S=0.01 to <0.5)
CI50 inhibition [3]: T (T=0.5 to <0.7)
Synergy Score growth inhibition [3]: A2 (A2=1 to <3)
Synergy Score inhibition [3]: A1 (A1=0.0001 to <1)
CI50 growth inhibition [4]: S (S=0.01 to <0.5)
CI50 inhibition [4]: U (U=0.7 to <1)
Synergy Score growth inhibition [4]: A2 (A2=1 to <3)
Synergy Score inhibition [4]: A2 (A2=1 to <3)
CI50 growth inhibition [5]: S (S=0.01 to <0.5)
CI50 inhibition [5]: S (S=0.01 to <0.5)
Synergy Score growth inhibition [5]: A3 (A3=>3)
Synergy Score inhibition [5]: A3 (A3=>3)
CI50 growth inhibition [6]: S (S=0.01 to <0.5)
CI50 inhibition [6]: T (T=0.5 to <0.7)
Synergy Score growth inhibition [6]: A3 (A3=>3)
Synergy Score inhibition [6]: A2 (A2=1 to <3)
CI50 growth inhibition [7]: T (T=0.5 to <0.7)
CI50 inhibition [7]: S (S=0.01 to <0.5)
Synergy Score growth inhibition [7]: A3 (A3=>3)
Synergy Score inhibition [7]: A3 (A3=>3)
CI50 growth inhibition [8]: S (S=0.01 to <0.5)
CI50 inhibition [8]: S (S=0.01 to <0.5)
Synergy Score growth inhibition [8]: A3 (A3=>3)
Synergy Score inhibition [8]: A3 (A3=>3)
CI50 growth inhibition [9]: S (S=0.01 to <0.5)
CI50 inhibition [9]: S (S=0.01 to <0.5)
Synergy Score growth inhibition [9]: A3 (A3=>3)
Synergy Score inhibition [9]: A3 (A3=>3)
CI50 growth inhibition [10]: S (S=0.01 to <0.5)
CI50 inhibition [10]: S (S=0.01 to <0.5)
Synergy Score growth inhibition [10]: A3 (A3=>3)
Synergy Score inhibition [10]: A3 (A3=>3)
CI50 growth inhibition [11]: U (U=0.7 to <1)
CI50 inhibition [11]: U (U=0.7 to <1)
Synergy Score growth inhibition [11]: A2 (A2=1 to <3)
Synergy Score inhibition [11]: A2 (A2=1 to <3)
CI50 growth inhibition [12]: S (S=0.01 to <0.5)
CI50 inhibition [12]: S (S=0.01 to <0.5)
Synergy Score growth inhibition [12]: A2 (A2=1 to <3)
Synergy Score inhibition [12]: A2 (A2=1 to <3)
CI50 growth inhibition [13]: T (T=0.5 to <0.7)
CI50 inhibition [13]: S (S=0.01 to <0.5)
Synergy Score growth inhibition [13]: A3 (A3=>3)
Synergy Score inhibition [13]: A3 (A3=>3)
CI50 growth inhibition [14]: W (W=≥1)
CI50 inhibition [14]: U (U=0.7 to <1)
Synergy Score growth inhibition [14]: A1 (A1=0.0001 to <1)
Synergy Score inhibition [14]: A1 (A1=0.0001 to <1)
CI50 growth inhibition [15]: T (T=0.5 to <0.7)
CI50 inhibition [15]: U (U=0.7 to <1)
Synergy Score growth inhibition [15]: A2 (A2=1 to <3)
Synergy Score inhibition [15]: A1 (A1=0.0001 to <1)
CI50 growth inhibition [16]: S (S=0.01 to <0.5)
CI50 inhibition [16]: T (T=0.5 to <0.7)
Synergy Score growth inhibition [16]: A3 (A3=>3)
Synergy Score inhibition [16]: A2 (A2=1 to <3)
CI50 growth inhibition [17]: U (U=0.7 to <1)
CI50 inhibition [17]: S (S=0.01 to <0.5)
Synergy Score growth inhibition [17]: A2 (A2=1 to <3)
Synergy Score inhibition [17]: A1 (A1=0.0001 to <1)
CI50 growth inhibition [18]: W (W=≥1)
CI50 inhibition [18]: T (T=0.5 to <0.7)
Synergy Score growth inhibition [18]: A3 (A3=>3)
Synergy Score inhibition [18]: A2 (A2=1 to <3)
CI50 growth inhibition [19]: U (U=0.7 to <1)
CI50 inhibition [20]: W (W=≥1)
Synergy Score growth inhibition [20]: A2 (A2=1 to <3)
Synergy Score inhibition [20]: A1 (A1=0.0001 to <1)
CI50 growth inhibition [21]: U (U=0.7 to <1)
CI50 inhibition [21]: W (W=≥1)
Synergy Score growth inhibition [21]: A2 (A2=1 to <3)
Synergy Score inhibition [21]: A1 (A1=0.0001 to <1)

NC1(c2ccc(-c3nc4ccn5c(=O)[nH]nc5c4cc3-c3ccccc3)cc2)CCC1 [MK-2206, 8-[4-(1-aminocyclobutyl)phenyl]-9-phenyl-2H-[1,2,4]triazolo[3,4-f][1,6]naphthyridin-3-one]
CI50 growth inhibition [1]: S (S=0.01 to <0.5)
CI50 inhibition [1]: S (S=0.01 to <0.5)
Synergy Score growth inhibition [1]: A3 (A3=>3)
Synergy Score inhibition [1]: A2 (A2=1 to <3)
CI50 growth inhibition [2]: T (T=0.5 to <0.7)
CI50 inhibition [2]: W (W=≥1)
Synergy Score growth inhibition [2]: A2 (A2=1 to <3)
Synergy Score inhibition [2]: A1 (A1=0.0001 to <1)
CI50 growth inhibition [3]: S (S=0.01 to <0.5)
CI50 inhibition [3]: W (W=≥1)
Synergy Score growth inhibition [3]: A2 (A2=1 to <3)
Synergy Score inhibition [3]: A1 (A1=0.0001 to <1)
CI50 growth inhibition [4]: U (U=0.7 to <1)
CI50 inhibition [4]: U (U=0.7 to <1)
Synergy Score growth inhibition [4]: A1 (A1=0.0001 to <1)
Synergy Score inhibition [4]: A1 (A1=0.0001 to <1)
CI50 growth inhibition [5]: S (S=0.01 to <0.5)
CI50 inhibition [5]: S (S=0.01 to <0.5)
Synergy Score growth inhibition [5]: A3 (A3=>3)
Synergy Score inhibition [5]: A3 (A3=>3)
CI50 growth inhibition [6]: U (U=0.7 to <1)
CI50 inhibition [6]: W (W=≥1)
Synergy Score growth inhibition [6]: A1 (A1=0.0001 to <1)
Synergy Score inhibition [6]: A1 (A1=0.0001 to <1)
CI50 growth inhibition [7]: S (S=0.01 to <0.5)
CI50 inhibition [7]: S (S=0.01 to <0.5)
Synergy Score growth inhibition [7]: A3 (A3=>3)
Synergy Score inhibition [7]: A3 (A3=>3)
CI50 growth inhibition [8]: S (S=0.01 to <0.5)
CI50 inhibition [8]: S (S=0.01 to <0.5)
Synergy Score growth inhibition [8]: A3 (A3=>3)
Synergy Score inhibition [8]: A3 (A3=>3)
CI50 growth inhibition [9]: S (S=0.01 to <0.5)
CI50 inhibition [9]: S (S=0.01 to <0.5)
Synergy Score growth inhibition [9]: A3 (A3=>3)
Synergy Score inhibition [9]: A3 (A3=>3)
CI50 growth inhibition [10]: S (S=0.01 to <0.5)
CI50 inhibition [10]: S (S=0.01 to <0.5)
Synergy Score growth inhibition [10]: A3 (A3=>3)
Synergy Score inhibition [10]: A3 (A3=>3)
CI50 growth inhibition [11]: S (S=0.01 to <0.5)
CI50 inhibition [11]: S (S=0.01 to <0.5)
Synergy Score growth inhibition [11]: A3 (A3=>3)
Synergy Score inhibition [11]: A3 (A3=>3)
CI50 growth inhibition [12]: T (T=0.5 to <0.7)
CI50 inhibition [12]: S (S=0.01 to <0.5)
Synergy Score growth inhibition [12]: A2 (A2=1 to <3)
Synergy Score inhibition [12]: A2 (A2=1 to <3)
CI50 growth inhibition [13]: S (S=0.01 to <0.5)
CI50 inhibition [13]: S (S=0.01 to <0.5)
Synergy Score growth inhibition [13]: A3 (A3=>3)
Synergy Score inhibition [13]: A3 (A3=>3)
Synergy Score growth inhibition [14]: A1 (A1=0.0001 to <1)
Synergy Score inhibition [14]: A1 (A1=0.0001 to <1)
CI50 growth inhibition [15]: S (S=0.01 to <0.5)
Synergy Score growth inhibition [15]: A1 (A1=0.0001 to <1)
Synergy Score inhibition [15]: A1 (A1=0.0001 to <1)
CI50 growth inhibition [16]: S (S=0.01 to <0.5)
CI50 inhibition [16]: S (S=0.01 to <0.5)
Synergy Score growth inhibition [16]: A2 (A2=1 to <3)
Synergy Score inhibition [16]: A2 (A2=1 to <3)
CI50 growth inhibition [17]: W (W=≥1)
CI50 inhibition [17]: U (U=0.7 to <1)
Synergy Score growth inhibition [17]: A1 (A1=0.0001 to <1)
Synergy Score inhibition [17]: A1 (A1=0.0001 to <1)
CI50 growth inhibition [18]: T (T=0.5 to <0.7)
CI50 inhibition [18]: U (U=0.7 to <1)
Synergy Score growth inhibition [18]: A3 (A3=>3)
Synergy Score inhibition [18]: A2 (A2=1 to <3)
CI50 growth inhibition [19]: S (S=0.01 to <0.5)
CI50 inhibition [20]: U (U=0.7 to <1)
Synergy Score growth inhibition [20]: A3 (A3=>3)
Synergy Score inhibition [20]: A2 (A2=1 to <3)
CI50 growth inhibition [21]: U (U=0.7 to <1)
CI50 inhibition [21]: U (U=0.7 to <1)
Synergy Score growth inhibition [21]: A2 (A2=1 to <3)
Synergy Score inhibition [21]: A1 (A1=0.0001 to <1)
